Tested on: human HL60 cells
Test: SWATH-MS proteomics, differential protein representation, akirin2 KO vs WT HL60 cells
Format: cell-based
Method: Total proteins were extracted from WT and akirin2 KO HL60 cells using the AllPrep DNA/RNA/Protein Mini Kit (Qiagen) and protein concentration was determined using the BCA Protein Assay with BSA (Sigma–Aldrich) as standard. Protein extracts (150 µg per sample, n=3 biological replicates) from each WT and KO cells were trypsin digested using the FASP Protein Digestion Kit (Expedeon Ltd., Abcam, Cambridge, U.K.) and sequencing grade trypsin (Promega, Madison, WI, U.S.A.) following manufacturer’s recommendations. The resulting peptides were finally desalted on to OMIX Pipette tips C18 (Agilent Technologies, Santa Clara, CA, U.S.A.), dried down and stored at −20 °C until mass spectrometry analysis. […] Three micrograms of each protein digest from the three biological replicates of WT and akirin2 KO HL60 cells were used for the generation of the reference spectral ion library as part of the SWATH-MS analysis.
Peptides were eluted in a 120-min gradient from 5 to 30% solvent B in solvent A followed by 15-min gradient from 30 to 60% solvent B in solvent A (solvent A: 0.1% formic acid in water, solvent B: 0.1% formic acid in acetonitrile) and directly injected into the mass spectrometer for analysis. For IDA experiments, the mass spectrometer was set to scanning full spectra (350–1400 m/z) using 250 ms accumulation time per spectrum, followed by up to 50 MS/MS scans (100–1500 m/z). Candidate ions with a charge state between +2 and +5 counts per second above a minimum threshold of 100 were isolated for fragmentation. One MS/MS spectrum was collected for 100 ms, before adding those precursor ions to the exclusion list for 15 s (mass spectrometer operated by Analyst TF 1.6, AB Sciex). Dynamic background subtraction was turned off. MS/MS analyses were recorded in high-sensitivity mode with rolling collision energy on and a collision energy spread of 5. For SWATH quantitative analysis, six independent samples (three replicates from WT and akirin2 KO HL60 cells, 5 µg each) were subjected to the cyclic DIA of mass spectra using the SWATH variable windows calculator (V 1.0, AB Sciex) and the SWATH acquisition method editor (AB Sciex), similar to established methods. […] For these experiments, a 50-ms survey scan (350–1400 m/z) was acquired at the beginning of each cycle, and SWATH–MS/MS spectra were collected from 100–1500 m/z for 70 ms at high-sensitivity mode, resulting in a cycle time of 3.6 s. Collision energy for each window was determined according to the calculation for a charge +2 ion-centered upon the window with a collision energy spread of 15. To create a spectral library of all the detectable peptides in the samples, the IDA MS raw files were combined and subjected to database search in unison using ProteinPilot software v. 5.0.1 (AB Sciex) with the Paragon algorithm. […] The detected protein threshold was set at 0.05. An independent false discovery rate (FDR) analysis, using the target–decoy approach provided by Protein Pilot (AB Sciex; https://sciex.com/products/software/proteinpilot-software), was used to assess the quality of identifications. Positive identifications were considered when identified proteins reached 1% of global FDR. […] Global normalization was performed according to the Total Area Sums (TAS) of all detected proteins in the samples. […] Heatmaps were prepared using the Heatmapper (http://www.heatmapper.ca/expression/) with average linkage and Euclidean distance measurement method.

[1] = akirin2 KO vs WT HL60 cells, sheet "Under-represented in KO"
[2] = akirin2 KO vs WT HL60 cells, sheet "Over-represented in KO"
[3] = SWATH-MS, akirin2 KO vs WT HL60 cells, under-represented in KO
[4] = SWATH-MS, akirin2 KO vs WT HL60 cells, over-represented in KO
[5] = KO vs WT, akirin2 KO vs WT HL60 cells, sheet "Under-represented in KO"
[6] = SWATH-MS, akirin2 KO vs WT HL60 cells, sheet "Under-represented in KO"
[7] = KO vs WT HL60 cells, sheet "Under-represented in KO"
[8] = Over-represented in KO, KO vs WT HL60 cells

With sp¦P12270¦TPR_HUMAN the “Fold Change” value [1] was 0.6414 and the “Log (Fold Change)” value [1] was -0.1929.

With sp¦P15531¦NDKA_HUMAN the “Fold Change” value [2] was 1.204 and the “Log (Fold Change)” value [2] was 0.08072.

sp¦O95758¦PTBP3_HUMAN was tested, and the “Fold Change” value [3] was 0.7281 and the “Log (Fold Change)” value [3] was -0.1378.

“Deoxynucleoside triphosphate triphosphohydrolase SAMHD1” was tested, and the “Fold Change” value [4] was 1.851 and the “Log (Fold Change)” value [4] was 0.2674.

With sp¦O14579¦COPE_HUMAN the “Fold Change” value [2] was 1.2285 and the “Log (Fold Change)” value [2] was 0.08937.

In the case of sp¦O00148¦DX39A_HUMAN, the “Fold Change” value [3] is reported as 0.7315 and the “Log (Fold Change)” value [3] is reported as -0.1358.

For sp¦E9PAV3¦NACAM_HUMAN, the “Fold Change” value [2] was 1.243 and the “Log (Fold Change)” value [2] was 0.09445.

sp¦P60953¦CDC42_HUMAN was tested, and the “Fold Change” value [3] was 0.7034 and the “Log (Fold Change)” value [3] was -0.1528.

With sp¦P12268¦IMDH2_HUMAN the “Fold Change” value [3] was 0.7306 and the “Log (Fold Change)” value [3] was -0.1363.

In the case of sp¦P05556¦ITB1_HUMAN, the “Fold Change” value [1] is reported as 0.257 and the “Log (Fold Change)” value [1] is reported as -0.5901.

In the case of sp¦E9PRG8¦CK098_HUMAN, the “Fold Change” value [2] is reported as 1.224 and the “Log (Fold Change)” value [2] is reported as 0.0879.

With sp¦P02792¦FRIL_HUMAN the “Fold Change” value [1] was 0.2798 and the “Log (Fold Change)” value [1] was -0.5531.

For sp¦P54709¦AT1B3_HUMAN, the “Fold Change” value [3] was 0.7448 and the “Log (Fold Change)” value [3] was -0.128.

In the case of sp¦Q01650¦LAT1_HUMAN, the “Fold Change” value [5] is reported as 0.603 and the “Log (Fold Change)” value [5] is reported as -0.2197.

sp¦P35250¦RFC2_HUMAN was tested, and the “Fold Change” value [6] was 0.7882 and the “Log (Fold Change)” value [6] was -0.1034.

In the case of sp¦Q07812¦BAX_HUMAN, the “Fold Change” value [7] is reported as 0.5501 and the “Log (Fold Change)” value [7] is reported as -0.2596.

For sp¦P40937¦RFC5_HUMAN, the “Fold Change” value [7] was 0.4492 and the “Log (Fold Change)” value [7] was -0.3475.

In the case of sp¦P56545¦CTBP2_HUMAN, the “Fold Change” value [1] is reported as 0.655 and the “Log (Fold Change)” value [1] is reported as -0.1838.

sp¦Q14289¦FAK2_HUMAN was tested, and the “Fold Change” value [7] was 0.4591 and the “Log (Fold Change)” value [7] was -0.3381.

In the case of sp¦P14618¦KPYM_HUMAN, the “Fold Change” value [4] is reported as 1.553 and the “Log (Fold Change)” value [4] is reported as 0.1913.

In the case of sp¦O75874¦IDHC_HUMAN, the “Fold Change” value [4] is reported as 1.681 and the “Log (Fold Change)” value [4] is reported as 0.2255.

For Galectin-1, the “Fold Change” value [4] was 1.707 and the “Log (Fold Change)” value [4] was 0.2322.

For sp¦P04406¦G3P_HUMAN, the “Fold Change” value [8] was 1.369 and the “Log (Fold Change)” value [8] was 0.1364.

For sp¦P31040¦SDHA_HUMAN, the “Fold Change” value [7] was 0.5299 and the “Log (Fold Change)” value [7] was -0.2758.

For sp¦O43681¦GET3_HUMAN, the “Fold Change” value [6] was 0.7665 and the “Log (Fold Change)” value [6] was -0.1155.

sp¦P00367¦DHE3_HUMAN was tested, and the “Fold Change” value [1] was 0.6801 and the “Log (Fold Change)” value [1] was -0.1674.

sp¦Q9H0U4¦RAB1B_HUMAN was tested, and the “Fold Change” value [3] was 0.704 and the “Log (Fold Change)” value [3] was -0.1524.

For sp¦Q9Y490¦TLN1_HUMAN, the “Fold Change” value [8] was 1.355 and the “Log (Fold Change)” value [8] was 0.1319.

With sp¦Q08945¦SSRP1_HUMAN the “Fold Change” value [1] was 0.3484 and the “Log (Fold Change)” value [1] was -0.4579.

With CD44 antigen the “Fold Change” value [4] was 2.131 and the “Log (Fold Change)” value [4] was 0.3287.

With sp¦P29350¦PTN6_HUMAN the “Fold Change” value [3] was 0.7017 and the “Log (Fold Change)” value [3] was -0.1538.

With sp¦P09622¦DLDH_HUMAN the “Fold Change” value [7] was 0.516 and the “Log (Fold Change)” value [7] was -0.2873.

sp¦Q14165¦MLEC_HUMAN was tested, and the “Fold Change” value [3] was 0.7439 and the “Log (Fold Change)” value [3] was -0.1285.

For sp¦O43447¦PPIH_HUMAN, the “Fold Change” value [2] was 1.22 and the “Log (Fold Change)” value [2] was 0.08634.

In the case of sp¦P46013¦KI67_HUMAN, the “Fold Change” value [2] is reported as 1.204 and the “Log (Fold Change)” value [2] is reported as 0.08052.

sp¦P08238¦HS90B_HUMAN was tested, and the “Fold Change” value [2] was 1.209 and the “Log (Fold Change)” value [2] was 0.08231.

In the case of sp¦Q15056¦IF4H_HUMAN, the “Fold Change” value [8] is reported as 1.397 and the “Log (Fold Change)” value [8] is reported as 0.1451.

In the case of sp¦P10155¦RO60_HUMAN, the “Fold Change” value [6] is reported as 0.7678 and the “Log (Fold Change)” value [6] is reported as -0.1147.

With sp¦P36404¦ARL2_HUMAN the “Fold Change” value [3] was 0.6935 and the “Log (Fold Change)” value [3] was -0.1589.

With Transferrin receptor protein 1 the “Fold Change” value [4] was 3.145 and the “Log (Fold Change)” value [4] was 0.4976.

With sp¦O43148¦MCES_HUMAN the “Fold Change” value [1] was 0.671 and the “Log (Fold Change)” value [1] was -0.1733.

sp¦Q9P287¦BCCIP_HUMAN was tested, and the “Fold Change” value [8] was 1.299 and the “Log (Fold Change)” value [8] was 0.1134.

For sp¦Q7Z6Z7¦HUWE1_HUMAN, the “Fold Change” value [7] was 0.5255 and the “Log (Fold Change)” value [7] was -0.2794.

For sp¦Q14692¦BMS1_HUMAN, the “Fold Change” value [5] was 0.6053 and the “Log (Fold Change)” value [5] was -0.218.

With sp¦P0CG38¦POTEI_HUMAN the “Fold Change” value [6] was 0.7517 and the “Log (Fold Change)” value [6] was -0.1239.

For sp¦P07237¦PDIA1_HUMAN, the “Fold Change” value [8] was 1.346 and the “Log (Fold Change)” value [8] was 0.1292.

With sp¦Q92616¦GCN1_HUMAN the “Fold Change” value [7] was 0.4921 and the “Log (Fold Change)” value [7] was -0.3079.

sp¦O00264¦PGRC1_HUMAN was tested, and the “Fold Change” value [5] was 0.6168 and the “Log (Fold Change)” value [5] was -0.2099.

sp¦O43813¦LANC1_HUMAN was tested, and the “Fold Change” value [3] was 0.7366 and the “Log (Fold Change)” value [3] was -0.1328.

For sp¦Q9BRF8¦CPPED_HUMAN, the “Fold Change” value [5] was 0.571 and the “Log (Fold Change)” value [5] was -0.2434.

With Galectin-10 the “Fold Change” value [4] was 4.451 and the “Log (Fold Change)” value [4] was 0.6485.

With sp¦P55072¦TERA_HUMAN the “Fold Change” value [2] was 1.115 and the “Log (Fold Change)” value [2] was 0.04741.

In the case of sp¦P61604¦CH10_HUMAN, the “Fold Change” value [3] is reported as 0.7263 and the “Log (Fold Change)” value [3] is reported as -0.1389.

In the case of Heat shock 70 kDa protein 1B, the “Fold Change” value [4] is reported as 1.868 and the “Log (Fold Change)” value [4] is reported as 0.2713.

In the case of sp¦P35579¦MYH9_HUMAN, the “Fold Change” value [1] is reported as 0.3518 and the “Log (Fold Change)” value [1] is reported as -0.4538.

In the case of sp¦Q02880¦TOP2B_HUMAN, the “Fold Change” value [6] is reported as 0.7738 and the “Log (Fold Change)” value [6] is reported as -0.1113.

sp¦Q9Y5B9¦SP16H_HUMAN was tested, and the “Fold Change” value [3] was 0.7335 and the “Log (Fold Change)” value [3] was -0.1346.

In the case of sp¦Q01469¦FABP5_HUMAN, the “Fold Change” value [4] is reported as 1.478 and the “Log (Fold Change)” value [4] is reported as 0.1698.

With sp¦Q8NF50¦DOCK8_HUMAN the “Fold Change” value [1] was 0.4042 and the “Log (Fold Change)” value [1] was -0.3934.

In the case of sp¦O94804¦STK10_HUMAN, the “Fold Change” value [7] is reported as 0.5498 and the “Log (Fold Change)” value [7] is reported as -0.2598.

sp¦Q14204¦DYHC1_HUMAN was tested, and the “Fold Change” value [1] was 0.6536 and the “Log (Fold Change)” value [1] was -0.1847.

Reference: PMC8298264, “Function of cofactor Akirin2 in the regulation of gene expression in model human neutrophil-like HL60 cells” (Bioscience Reports, 2021)
